According to paper PMC10974284, “Discovery of Novel 4-Hydroxyquinazoline Derivatives: In Silico, In Vivo and In Vitro Studies Using Primary PARPi-Resistant Cell Lines” (Molecules, 2024):
Like-named read-outs stand apart in the source and are kept apart here.

Assays:
[1] = tested on: HCC1937 cell lines; experiment: MTT cytotoxicity assay, HCC1937; assay type: cell-based, human; details: Homo sapiens, read-out: IC50 HCC1937
Protocol: (§1) After treatment with target compounds at the different concentrations, MTT was added and the cells were incubated for another 4 h. The IC50 values of the selected compounds were evaluated by the same method. The cells were treated with compounds at different concentrations. The OD values were detected using a microplate reader at 570 nm.

[2] = tested on: HCT-15 cell lines; experiment: MTT cytotoxicity assay, HCT-15; assay type: cell-based, human; details: Homo sapiens, read-out: IC50 HCT-15
Protocol: as §1

[3] = HCC1937, 72 h (3-Days) drug exposure, MTT
[4] = HCT-15, 72 h (3-Days) drug exposure, MTT

melting point | Structure (SMILES) | IC50 ([1]; HCC1937, 72 h) | IC50 ([2]; HCT-15, 72 h) | IC50 [1, 3] | IC50 [2, 4]
184.9 to 186.9 °C | COc1ccc(NC(=O)N2CCN(Cc3nc4ccccc4c(=O)[nH]3)CC2)cc1 [A18, N-(4-methoxyphenyl)-4-((4-oxo-3,4-dihydroquinazolin-2-yl)methyl)piperazine-1-carboxamide] |  |  | > 50 µM | > 50 µM
200.1 to 201.2 °C | O=C(Nc1ccccc1C(F)(F)F)N1CCN(Cc2nc3ccccc3c(=O)[nH]2)CC1 [A13, 4-((4-oxo-3,4-dihydroquinazolin-2-yl)methyl)-N-(2-(trifluoromethyl)phenyl) piperazine-1-carboxamide] |  |  | > 50 µM | 20.2 ± 0.78 µM
188.2 to 189.9 °C | O=C(Nc1cccc(F)c1F)N1CCN(Cc2nc3ccccc3c(=O)[nH]2)CC1 [A19, N-(2,3-difluorophenyl)-4-((4-oxo-3,4-dihydroquinazolin-2-yl)methyl)piperazine-1-carboxamide] |  |  | > 50 µM | 19.1 ± 0.59 µM
198.4 to 199.8 °C | O=C(Nc1c(F)cccc1Cl)N1CCN(Cc2nc3ccccc3c(=O)[nH]2)CC1 [A25, N-(2-chloro-6-fluorophenyl)-4-((4-oxo-3,4-dihydroquinazolin-2-yl)methyl)piperazine-1-carboxamide] |  |  | > 50 µM | 41.2 ± 1.44 µM
188.5 to 190.7 °C | COc1ccccc1NC(=O)N1CCN(Cc2nc3ccccc3c(=O)[nH]2)CC1 [A16, N-(2-methoxyphenyl)-4-((4-oxo-3,4-dihydroquinazolin-2-yl)methyl)piperazine-1-carboxamide] |  |  | > 50 µM | 30.7 ± 2.13 µM
191.2 to 193.9 °C | O=C(Nc1cc(C(F)(F)F)ccc1Cl)N1CCN(Cc2nc3ccccc3c(=O)[nH]2)CC1 [A26, N-(2-chloro-5-(trifluoromethyl)phenyl)-4-((4-oxo-3,4-dihydroquinazolin-2-yl)methyl)piperazine-1-carboxamide] |  |  | > 50 µM | 37.3 ± 2.76 µM
202.3 to 203.9 °C | O=C(Nc1ccc(C(F)(F)F)cc1F)N1CCN(Cc2nc3ccccc3c(=O)[nH]2)CC1 [A24, N-(2-fluoro-4-(trifluoromethyl)phenyl)-4-((4-oxo-3,4-dihydroquinazolin-2-yl)methyl)piperazine-1-carboxamide] |  |  | 44.1 ± 2.19 µM | 22.8 ± 1.82 µM
198.9 to 200.6 °C | Cc1c(F)cccc1NC(=O)N1CCN(Cc2nc3ccccc3c(=O)[nH]2)CC1 [A28, N-(3-fluoro-2-methylphenyl)-4-((4-oxo-3,4-dihydroquinazolin-2-yl)methyl)piperazine-1-carboxamide] |  |  | > 50 µM | 30.3 ± 3.3 µM
199.8 to 200.2 °C | O=C(Nc1cc(F)cc(F)c1)N1CCN(Cc2nc3ccccc3c(=O)[nH]2)CC1 [A34, N-(3,5-difluorophenyl)-4-((4-oxo-3,4-dihydroquinazolin-2-yl)methyl)piperazine-1-carboxamide] |  |  | > 50 µM | 47.2 ± 3.35 µM
196.7 to 198.7 °C | Cc1ccc(Cl)c(NC(=O)N2CCN(Cc3nc4ccccc4c(=O)[nH]3)CC2)c1 [A27, N-(2-chloro-5-methylphenyl)-4-((4-oxo-3,4-dihydroquinazolin-2-yl)methyl)piperazine-1-carboxamide] |  |  | 17.5 ± 0.66 µM | 25.4 ± 1.48 µM
200.1 to 202.7 °C | O=C(Nc1ccc(F)c(Cl)c1)N1CCN(Cc2nc3ccccc3c(=O)[nH]2)CC1 [A36, N-(3-chloro-4-fluorophenyl)-4-((4-oxo-3,4-dihydroquinazolin-2-yl)methyl)piperazine-1-carboxamide] |  |  | > 50 µM | 25.2 ± 1.66 µM
204.2 to 206.1 °C | O=C(Nc1cc(C(F)(F)F)cc(C(F)(F)F)c1)N1CCN(Cc2nc3ccccc3c(=O)[nH]2)CC1 [A39, N-(3,5-bis(trifluoromethyl)phenyl)-4-((4-oxo-3,4-dihydroquinazolin-2-yl)methyl)piperazine-1-carboxamide] |  |  | 42.2 ± 2.77 µM | 21 ± 2.33 µM
192.5 to 194.2 °C | O=C(Nc1ccccc1F)N1CCN(Cc2nc3ccccc3c(=O)[nH]2)CC1 [A1, N-(2-fluorophenyl)-4-((4-oxo-3,4-dihydroquinazolin-2-yl)methyl)piperazine-1-carboxamide] |  |  | 16.6 ± 1.12 µM | 18.4 ± 0.91 µM
201.1 to 202.8 °C | Cc1ccc(F)cc1NC(=O)N1CCN(Cc2nc3ccccc3c(=O)[nH]2)CC1 [A30, N-(5-fluoro-2-methylphenyl)-4-((4-oxo-3,4-dihydroquinazolin-2-yl)methyl)piperazine-1-carboxamide] |  |  | 39.5 ± 1.84 µM | 18.3 ± 0.44 µM
197.9 to 199.6 °C | O=C(Nc1ccccc1Cl)N1CCN(Cc2nc3ccccc3c(=O)[nH]2)CC1 [A4, N-(2-chlorophenyl)-4-((4-oxo-3,4-dihydroquinazolin-2-yl)methyl)piperazine-1-carboxamide] |  |  | 14.7 ± 1.67 µM | 19.1 ± 1.12 µM
197.8 to 200.3 °C | O=C(Nc1cccc(C(F)(F)F)c1)N1CCN(Cc2nc3ccccc3c(=O)[nH]2)CC1 [A14, 4-((4-oxo-3,4-dihydroquinazolin-2-yl)methyl)-N-(3-(trifluoromethyl)phenyl)piperazine-1-carboxamide] |  |  | 17.7 ± 0.77 µM | 20 ± 1.15 µM
196.5 to 197.8 °C | O=C(Nc1ccc(F)cc1)N1CCN(Cc2nc3ccccc3c(=O)[nH]2)CC1 [A3, N-(4-fluorophenyl)-4-((4-oxo-3,4-dihydroquinazolin-2-yl)methyl)piperazine-1-carboxamide] |  |  | > 50 µM | > 50 µM
207.5 to 209.5 °C | O=C(Nc1cc(Cl)cc(Cl)c1)N1CCN(Cc2nc3ccccc3c(=O)[nH]2)CC1 [A35, N-(3,5-dichlorophenyl)-4-((4-oxo-3,4-dihydroquinazolin-2-yl)methyl)piperazine-1-carboxamide] |  |  | > 50 µM | 21.2 ± 0.89 µM
199.5 to 201.1 °C | Cc1ccc(F)c(NC(=O)N2CCN(Cc3nc4ccccc4c(=O)[nH]3)CC2)c1 [A23, N-(2-fluoro-5-methylphenyl)-4-((4-oxo-3,4-dihydroquinazolin-2-yl)methyl)piperazine-1-carboxamide] |  |  | 44.2 ± 3.47 µM | 26 ± 1.67 µM
194.4 to 196.1 °C | Cc1ccc(NC(=O)N2CCN(Cc3nc4ccccc4c(=O)[nH]3)CC2)cc1C [A37, N-(3,4-dimethylphenyl)-4-((4-oxo-3,4-dihydroquinazolin-2-yl)methyl)piperazine-1-carboxamide] |  |  | 46.4 ± 2.96 µM | 22.5 ± 1.49 µM
186.6 to 187.9 °C | Cc1ccc(Cl)cc1NC(=O)N1CCCN(Cc2nc3ccccc3c(=O)[nH]2)CC1 [B4, N-(5-chloro-2-methylphenyl)-4-((4-oxo-3,4-dihydroquinazolin-2-yl)methyl)-1,4-diazepane-1-carboxamide] |  |  | 5.77 ± 0.99 µM | 5.65 ± 1.29 µM
197.7 to 199.5 °C | Cc1ccc(NC(=O)N2CCN(Cc3nc4ccccc4c(=O)[nH]3)CC2)cc1 [A12, 4-((4-oxo-3,4-dihydroquinazolin-2-yl)methyl)-N-(p-tolyl)piperazine-1-carboxamide] |  |  | > 50 µM | > 50 µM
197.6 to 200.1 °C | Cc1cc(F)ccc1NC(=O)N1CCN(Cc2nc3ccccc3c(=O)[nH]2)CC1 [A29, N-(4-fluoro-2-methylphenyl)-4-((4-oxo-3,4-dihydroquinazolin-2-yl)methyl)piperazine-1-carboxamide] |  |  | > 50 µM | 29.8 ± 1.57 µM

Structure (SMILES) | melting point | IC50 ([1]; HCC1937, 72 h) | IC50 ([2]; HCT-15, 72 h) | IC50 [1, 3] | IC50 [2, 4]
Cc1ccc(Cl)cc1NC(=O)N1C2CC1CN(Cc1nc3cc(F)c(F)cc3c(=O)[nH]1)C2 [C5, N-(5-chloro-2-methylphenyl)-3-((6,7-difluoro-4-oxo-3,4-dihydroquinazolin-2-yl)methyl)-3,6-diazabicyclo[3.1.1]heptane-6-carboxamide] | 194.4 to 195.8 °C | 55 ± 4.28 µM | 29.6 ± 2.16 µM |  | 
Cc1ccc(Cl)cc1NC(=O)N1C2CC1CN(Cc1nc3cc(F)ccc3c(=O)[nH]1)C2 [C1, N-(5-chloro-2-methylphenyl)-3-((7-fluoro-4-oxo-3,4-dihydroquinazolin-2-yl)methyl)-3,6-diazabicyclo[3.1.1]heptane-6-carboxamide] | 193.2 to 195.1 °C | 9.22 ± 1.19 µM | 24.1 ± 2.25 µM |  | 
Cc1ccc(Cl)cc1NC(=O)N1C2CC1CN(Cc1nc3ccc(F)cc3c(=O)[nH]1)C2 [C4, N-(5-chloro-2-methylphenyl)-3-((6-fluoro-4-oxo-3,4-dihydroquinazolin-2-yl)methyl)-3,6-diazabicyclo[3.1.1]heptane-6-carboxamide] | 192.1 to 193.5 °C | 8.49 ± 0.71 µM | 9.84 ± 0.63 µM |  | 
Cc1ccc(Cl)cc1NC(=O)N1C[C@H]2CC[C@@H](C1)N2Cc1nc2ccccc2c(=O)[nH]1 [B5, (1R,5S)-N-(5-chloro-2-methylphenyl)-8-((4-oxo-3,4-dihydroquinazolin-2-yl)methyl)-3,8-diazabicyclo[3.2.1]octane-3-carboxamide] | 189.5 to 191.7 °C | 9.61 ± 1.35 µM | 11 ± 2.4 µM |  | 
Cc1ccc(Cl)cc1NC(=O)N1C2CCC1CN(Cc1nc3ccccc3c(=O)[nH]1)C2 [B6, N-(5-chloro-2-methylphenyl)-3-((4-oxo-3,4-dihydroquinazolin-2-yl)methyl)-3,8-diazabicyclo[3.2.1]octane-8-carboxamide] | 192.3 to 193.6 °C | 7.52 ± 1.37 µM | 7.27 ± 1.28 µM |  | 
Cc1ccc(Cl)cc1NC(=O)N1C2CC1CN(Cc1nc3cc(Cl)ccc3c(=O)[nH]1)C2 [C2, N-(5-chloro-2-methylphenyl)-3-((7-chloro-4-oxo-3,4-dihydroquinazolin-2-yl)methyl)-3,6-diazabicyclo[3.1.1]heptane-6-carboxamide] | 192.3 to 194.1 °C | 32.4 ± 2.66 µM | 23 ± 1.93 µM |  | 
